# Assay results reported in patent US20060252698A1, “Compounds for inhibiting cathepsin activity” (priority 2005, published 2006).
# Target: T1, Human Liver Cathepsin L (Homo sapiens, UniProt P07711)
# T1 construct: purchased Calbiochem 219402
# Assay: Cathepsin L inhibition assay (kinetic, Z-Phe-Arg-pNA substrate)
# Assay type: biochemical
# Conditions: Z-Phe-Arg-pNA 120 μM, enzyme 12 nM, pH 5.5, read at 410 nm
# Description: Cathepsin Assay Protocols:
# • 1. 96-well Round or V-bottom microplates for dilutions • 2. 96-well COSTAR UV microplates for assay (COSTAR cat.#3635) • 3. Bio-Spin 6 Chromatography Columns (BIO-RAD cat.#732-6002). • 4. 12-75 mm test tubes • 5. Falcon 50 ml tubes • 6. Falcon 14 ml tubes • 7. 1.5 ml eppendorf tube • 8. ≦10 ml buffer reservoir Reagents: • 1. Enzyme: Cathepsin G, M.W.23,500, 10 μM stock. • 2. Substrate:Suc-Ala-Ala-Pro-Phe-pNA, M.W. 624.65, prep. 100 mM [62.465 mg/ml] stock. • 3. Buffer: [50 mM HEPES, 500 mM NaCl, 5 μM EDTA, pH 7.14], 5 μM DTT Instrument Settings: SpectraMax Plus • 1. Kinetic assay reading@405 nm • 2. Read interval: 30 seconds • 3. Time: 1 hour • 4. OD Min: −0.001 • 5. OD Max: 0.5 • 6. Data Mode: Absorbance • 7. e405=194.078 μM/O.D. Procedure: • 1. Add 73 μl of buffer to all wells. • 2. Add […] of buffer to (−E) controls. • 3. Add 7 μl of sample and/or DMSO for controls to appropriate wells. • 4. Prep. substrate: 100 mM (62.465 mg/ml) stock in 100% DMSO. • 5. Dilute 1:20 in buffer. 75 μl in 1.425 ml. 5 mM final. • 6. Add 20 μl of 5 mM substrate to all wells. 500 μM final. • 7. Dilute enzyme (1:50) in buffer; Add 120 μl to 5,880 μl buffer. 2×[200 nM] final. • 8. Add 100 μl of 2× [200 nM] enzyme to assigned wells, except (−E) controls. [100 nM] final. • 11. Vortex 20 seconds. Read@ 405 nM every 30 seconds for 1 hour on SpectraMax Plus • Endpoint assay reading plate@ 600 nM. Used for the detection of precipitation. Cathepsin H: Materials: • 1. 96-well Round or V-bottom microplates for dilutions • 2. 96-well COSTAR UV microplates for assay (COSTAR cat.#3635) • 3. Bio-Spin 6 Chromatography Columns (BIO-RAD cat.#732-6002) • 4. 12-75 mm test tubes • 5. Falcon 50 ml tubes • 6. Falcon 14 ml tubes • 7. 1.5 ml eppendorf tube • 8. ≧10 ml buffer reservoir Reagents: • 1. Enzyme: Cathepsin H, M.W.28,000, 9.07 μM stock. • 2. Substrate:H-Arg-pNA, M.W. 367.2, prep. 50 mM [18.36 mg/ml] stock. • 3. Buffer: [100 mM NaP04, 1 mM EDTA, 1 mM DTT, pH 6.5 Instrument Settings: SpectraMax Plus • 1. Kinetic assay reading@410 nM • 2. Read interval: 30 seconds • 3. Time: 1 hour • 4. OD Min: −0.001 • 5. OD Max: 0.05 • 6. Data Mode: Absorbance • 7. e410=188.415 μM/O.D. Km=108±5 μM Procedure: • 1. Prep. substrate: 50 mM (18.36 mg/ml) stock in 100% DMSO. • 2. Add 73 μl of buffer to all wells. • 3. Add 7 μl of sample to appropriate wells: a.) 100% DMSO for (+E) & (−E) controls. • 4. Add 100 μl of buffer to (−E) controls. • 5. Dilute substrate (1:20) in buffer; Add 140 μl to 2.66 ml buffer while vortexing. [2.5 mM] final. • 6. Add 20 μl of substrate to all wells. Vortex 3-5 seconds. [250 μM] final. • 7. Dilute enzyme (1:64.8) in buffer; Add 179 μl to 11.418 ml buffer. 2× [140 nM] final. • 8. Add 100 μl of 2× [140 nM] enzyme to assigned wells, except (−E) controls. [70 nM] final. • 9. Read@410 nM every 30 seconds for 1 hour on SpectraMax Plus Cathepsin L: Materials: • 1. 96-well Round or V-bottom microplates for dilutions • 2. 96-well COSTAR UV microplates for assay (COSTAR cat.#3635) • 3. Falcon 50 ml tubes • 4. Falcon 14 ml tubes • 5. 1.5 ml eppendorf tube • 6. 10 ml buffer reservoir Reagents: • 1. Enzyme: Calbiochem #219402: Cathepsin L, M.W.29,000, 11.62 μM stock. Lot#B45683 • 2. Substrate: Bachem #L-1242: Z-Phe-Arg-pNA, M.W. 612.09, prep. 4.8 mM [2.938 mg/ml] stock in 100% DMSO. • 3. Buffer: [100 mM NaP04, 1 mM EDTA, pH 5.5] Supplement buffer w/1 mM DTT, day of assay. Experiment #1: • Instrument settings: SpectraMax Plus microtiter plate reader (Molecular Devices, Sunnydale, Calif.) • 1. Kinetic assay reading@410 nM • 2. Read interval: 30 seconds • 3. Time: 1 hour • 4. OD Min: −0.001 • 5. OD Max: 0.05 • 6. Data Mode: Absorbance • 7. ε410=161.311 μM/O.D. Km=56±8 μM Procedure: • 1. Add 88 μl of buffer to all wells. • 2. Add 7 μl of sample or 100% DMSO to appropriate wells. • 3. Add 100 μl of buffer to (−E) controls. • 5. Add 5 μ 4.8 mM] substrate to all wells. [120 μM] final. • 6. Vortex 3-5 seconds. • 7. Dilute enzyme (1:483.87) in buffer; Add 24.8 μl to 12,000 μl buffer. 2×[24 nM] final. • 8. […]
# T1 sequence (P07711 114-288 limits assumed): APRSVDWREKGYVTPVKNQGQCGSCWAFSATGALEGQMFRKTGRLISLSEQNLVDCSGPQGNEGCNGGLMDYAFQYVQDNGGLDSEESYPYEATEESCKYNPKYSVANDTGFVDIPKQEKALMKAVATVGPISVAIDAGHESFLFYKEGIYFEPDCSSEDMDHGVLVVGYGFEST
# T1 sequence (P07711 292-333 limits assumed): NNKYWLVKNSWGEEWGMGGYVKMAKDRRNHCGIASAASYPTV
row,SMILES,Ki
1,CC1([C@H](NC(=O)NC2(CS(=O)(=O)C(C)(C)C)CCCCC2)C(=O)N2C[C@H]3[C@@H]([C@H]2C(=O)N[C@@H](CCC2CC2)C(=O)C(=O)NC2CC2)C3(C)C)CCCCC1,0.012 µM
2,CC(C)(C)OC(=O)N[C@H](C(=O)N1CC2CCCC2[C@H]1C(=O)NC(CC1CC1)C(=O)C(N)=O)C1CCCCC1 (stereo partly drawn),0.014 µM
3,CCCC[C@H](NC(=O)[C@@H]1[C@@H]2[C@H](CN1C(=O)[C@@H](NC(=O)NC1([C@H]3CCCS3(=O)=O)CCCCC1)C1(C)CCCCC1)C2(C)C)C(=O)C(=O)NC1CC1,0.02 µM
4,CCCC(NC(=O)[C@H](CC(C)C)NC(=O)C(NC(=O)OC(C)(C)C)C(C)(C)C)C(=O)C(N)=O (stereo partly drawn),0.02 µM
5,CC(C)(C)OC(=O)N[C@H](C(=O)N1c2ccccc2C[C@H]1C(=O)NC(CC1CC1)C(=O)C(N)=O)C1CCCCC1 (stereo partly drawn),0.02 µM
6,C=CCNC(=O)C(=O)C(CC1CC1)NC(=O)[C@@H]1[C@@H]2[C@H](CN1C(=O)[C@@H](NC(=O)N[C@H](CN1C(=O)CC(C)(C)CC1=O)C(C)(C)C)C(C)(C)O)C2(C)C (stereo partly drawn),0.02 µM
7,CC1([C@H](NC(=O)NC2(C3CCCS3(=O)=O)CCCCC2)C(=O)N2C[C@H]3[C@@H]([C@H]2C(=O)N[C@@H](CCC2CC2)C(=O)C(=O)NC2CC2)C3(C)C)CCCCC1 (stereo partly drawn),0.024 µM
8,CC(C)C[C@@H](C(=O)NC(CC1CC1)C(=O)C(N)=O)C1CCCCCC[C@H](NC(=O)OC(C)(C)C)C1=O (stereo partly drawn),0.025 µM
9,CCC[C@H](NC(=O)[C@@H]1[C@@H]2[C@H](CN1C(=O)[C@@H](NC(=O)NC1([C@H]3CCCS3(=O)=O)CCCCC1)C1(C)CCCCC1)C2(C)C)C(=O)C(=O)NC1CC1,0.031 µM
10,COc1ccc2c(O[C@@H]3C[C@H]4C(=O)N[C@]5(C(=O)O)CC5/C=C\CCCCC[C@H](NC(=O)OC5CCCC5)C(=O)N4C3)cc(-c3csc(NC(C)C)n3)nc2c1 (stereo partly drawn),0.038 µM
11,CCCC[C@H](NC(=O)[C@@H]1[C@@H]2[C@H](CN1C(=O)[C@@H](NC(=O)NC1(CS(=O)(=O)C(C)C)CCCCC1)C(C)(C)C)C2(C)C)C(=O)C(=O)NC1CC1,0.038 µM
12,CCCC[C@H](NC(=O)[C@@H]1[C@@H]2[C@H](CN1C(=O)[C@@H](NC(=O)NC1([C@H]3CCN(C)S3(=O)=O)CCCCC1)C(C)(C)C)C2(C)C)C(=O)C(=O)NC1CC1,0.04 µM
13,CC1(C)C2CN(C(=O)[C@@H](NC(=O)NC3CCCCC3)C(C)(C)C)[C@H](C(=O)NC(CC3CCC3)C(=O)C(N)=O)C21 (stereo partly drawn),0.063 µM
14,CC(C)(C)NC(=O)N[C@H](C(=O)N1C[C@H]2[C@@H]([C@H]1C(=O)NC(CC1CCC1)C(=O)C(N)=O)C2(C)C)C(C)(C)C (stereo partly drawn),0.076 µM
15,CCCC[C@H](NC(=O)[C@@H]1[C@@H]2[C@H](CN1C(=O)[C@@H](NC(=O)NC1([C@H]3CCCS3(=O)=O)CCCCC1)C(C)(C)C)C2(C)C)C(=O)C(=O)NC1CC1,0.08 µM
16,CCCC(NC(=O)[C@@H]1Cc2ccc3cc2CN1C(=O)[C@H](C1CCCCC1)NC(=O)CCCCCCO3)C(=O)C(N)=O (stereo partly drawn),0.08 µM
17,CN(C)C(=O)[C@@H](NC(=O)CNC(=O)C(=O)C(CC1CC1)NC(=O)[C@@H]1[C@H]2CC(C)(C)O[C@H]2CN1C(=O)[C@@H](NC(=O)OC(C)(C)C)C1CCCCC1)c1ccccc1 (stereo partly drawn),0.097 µM

row,SMILES,Ki
1,CCC[C@H](NC(=O)[C@@H]1[C@H]2CCC[C@H]2CN1C(=O)[C@@H](NC(=O)[C@@H](NC(=O)c1cnccn1)C1CCCCC1)C(C)(C)C)C(=O)C(=O)NC1CC1,0.104 µM
2,CC(C)C[C@@H](C(=O)NC(CC1CCC1)C(=O)C(N)=O)N1CCCCCC[C@H](NC(=O)N[C@@H](C(=O)OC(C)C)C(C)(C)C)C1=O (stereo partly drawn),0.12 µM
3,CC1C[C@H]2CN(C(=O)[C@@H](NC(=O)OC(C)(C)C)C3CCCCC3)[C@H](C(=O)NC(CC3CC3)C(=O)C(=O)NCC(=O)N[C@H](C(=O)N(C)C)c3ccccc3)[C@H]2C1 (stereo partly drawn),0.12 µM
4,CC(C)(C)OC(=O)N[C@H](C(=O)N1C[C@H]2[C@@H]([C@H]1C(=O)NC(CC1CC1)C(=O)C(N)=O)C(C)(C)C2(C)C)C1CCCCC1 (stereo partly drawn),0.22 µM
5,C=CCCC(NC(=O)[C@H]1C(C(=O)[C@@H](NC(=O)OC(C)(C)C)C2CCCCC2)C[C@@H]2C[C@@H]21)C(=O)C(=O)NCC=C (stereo partly drawn),1.5 µM
6,CC(C)(C)OC(=O)N[C@H](C(=O)N1CCC[C@H]1C(=O)NC(CC1CCC1)C(=O)C(N)=O)C(C)(C)C (stereo partly drawn),1.9 µM
7,CN(C[C@@H](NC(=O)N[C@H](C(=O)N1C[C@H](OC(C)(C)C)C[C@H]1C(=O)NC(CC1CCC1)C(=O)C(N)=O)C1CCCCC1)C(C)(C)C)S(C)(=O)=O (stereo partly drawn),0.11 µM
8,C=CCNC(=O)C(=O)C(CCC)NC(=O)[C@@H]1[C@@H]2[C@H](CN1C(=O)[C@@H](NC(=O)N[C@H](CN1CCCCC1=O)C(C)(C)C)C1Cc3ccccc3C1)C2(C)C (stereo partly drawn),0.14 µM
9,CCCNC(=O)C(=O)[C@@H]1CCCCCCCCC[C@H](NC(=O)NC2(CS(=O)(=O)C(C)(C)C)CCCCC2)C(=O)N2C[C@H]3[C@@H]([C@H]2C(=O)N1)C3(C)C,0.33 µM
10,C=CCNC(=O)C(=O)[C@@H]1CCCCCCCCC[C@H](NC(=O)N[C@H](CN(C)S(=O)(=O)N(C)C)C(C)(C)C)C(=O)N2C[C@H]3[C@@H]([C@H]2C(=O)N1)C3(C)C,0.37 µM
11,C=CCNC(=O)C(=O)C(CC1CC1)NC(=O)[C@@H]1[C@H]2C(c3ccccc3)[C@H]2CN1C(=O)[C@@H](NC(=O)NC1(CS(=O)(=O)C(C)(C)C)CCCCC1)C(C)(C)C (stereo partly drawn),0.35 µM
12,CN(C[C@@H](NC(=O)N[C@H](C(=O)N1C[C@H]2[C@@H]([C@H]1C(=O)N[C@@H](CC(F)F)C(=O)N[C@@H]1C[C@@H]1c1ccccc1)C2(C)C)C(C)(C)C)C(C)(C)C)S(C)(=O)=O,0.53 µM
13,CC1(C)CC(=O)N(C[C@@H](NC(=O)N[C@H]2CCCCCCCCC[C@@H](C(=O)C(=O)NC3CC3)NC(=O)[C@@H]3[C@@H]4[C@H](CN3C2=O)C4(C)C)C(C)(C)C)C(=O)C1,0.25 µM
14,C=CCNC(=O)C(=O)[C@@H]1CCCCCCCCC[C@H](NC(=O)N[C@H](CN2CCC(C)(C)CC2=O)C(C)(C)C)C(=O)N2C[C@H]3[C@@H]([C@H]2C(=O)N1)C3(C)C,0.366 µM
15,C=CCNC(=O)C(=O)[C@@H]1CCCCCCCCC[C@H](NC(=O)NC2(CS(=O)(=O)C(C)(C)CC)CCCCC2)C(=O)N2C[C@H]3[C@@H]([C@H]2C(=O)N1)C3(C)C,0.23 µM
16,CC1(C)[C@@H]2[C@H]3C(=O)N[C@H](C(=O)C(=O)NC4CC4)CCCCCCCCC[C@H](NC(=O)NC4(C5CCCS5(=O)=O)CCCCC4)C(=O)N3C[C@@H]21 (stereo partly drawn),0.11 µM
